Results on 33 molecules are retold here after patent US10870660B2, “Nitrogen-containing condensed ring compounds having dopamine D3 antagonistic effect” (Shionogi & Co., Ltd., priority 2016, dated 2020).

Assay [1] deals with Male Crl: WI rats. Briefly: Effect of suppressing impulsivity in rat (T-maze delayed large reward choice, i.p.). Format: in vivo. The following applies: 3 mg/kg, daily over 5 days, tested 40 min after administration, compared with vehicle control group. The text has this:
Male Crl: WI rats were obtained at post-natal day 14 and weaning was occurred at post-natal day 21. Starting from then, the rats were housed 2-3 per cage and food-restricted (Day 1). The feeding amount was 5 g/day at post-natal day 21-28 (Day 1-8), 8.5 g/day at post-natal day 29-32 (Day 9-12), and 10 g/day at post-natal day 33-36 (Day 13-16), preventing their body weight from being 60% or less of the weight of the free feeding rats.
4 days after the beginning of the food restriction (Day 5), pellets were put on goal boxes located in the left-side and the right-side of T-maze. Then, the rats were allowed to freely explore the T-maze-box for 5 min to get habituated to the T-maze box and learn that the pellets were put on the goal boxes located in the left-side and the right-side. For 4 consecutive days from the next day (Day 6-9), one pellet (20 mg×1) was put in one side of the goal box as a small reward, and 5 pellets (20 mg×5) were put in the other side of the goal box as a large reward, and the rats were trained to learn their positions. Each rat underwent 10-trial per day trainings. […] The evaluations of the drug efficacy were started on Day 12. The compounds of the present invention were dissolved in distilled water containing 3% of 1 mol/L hydrochloric acid and administered i.p. to the trained rats to attain the dose of 1, 3 or 10 mg/kg. […]

The target in assay [2] is human recombinant dopamine D2 receptor (Homo sapiens (Human), UniProt P14416). Briefly: Test of binding inhibition for the human dopamine D2 receptor ([3H]-Metylspiperone SPA binding). The following applies: [3H]-Metylspiperone 1.2 nM, Jump-In HEK cell membranes, read-out: hD2_Ki. In short, it runs like this: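 Scintillation proximity binding with HEK membranes expressing human D2 receptor (2 μg/well), 1.2 nM [3H]-methylspiperone, in Tris-HCl pH 7.4 with NaCl, MgCl2, KCl and CaCl2; 120 min at 25° C.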

Assay [3] deals with human recombinant dopamine D3 receptor (Homo sapiens (Human), UniProt P35462). Briefly: Test of binding inhibition for the human dopamine D3 receptor ([3H]-Metylspiperone SPA binding). The following applies: [3H]-Metylspiperone 2 nM, Jump-In HEK cell membranes, read-out: hD3_Ki.

Structures are written as SMILES.

Sequence of human recombinant dopamine D2 receptor (P14416 whole entry): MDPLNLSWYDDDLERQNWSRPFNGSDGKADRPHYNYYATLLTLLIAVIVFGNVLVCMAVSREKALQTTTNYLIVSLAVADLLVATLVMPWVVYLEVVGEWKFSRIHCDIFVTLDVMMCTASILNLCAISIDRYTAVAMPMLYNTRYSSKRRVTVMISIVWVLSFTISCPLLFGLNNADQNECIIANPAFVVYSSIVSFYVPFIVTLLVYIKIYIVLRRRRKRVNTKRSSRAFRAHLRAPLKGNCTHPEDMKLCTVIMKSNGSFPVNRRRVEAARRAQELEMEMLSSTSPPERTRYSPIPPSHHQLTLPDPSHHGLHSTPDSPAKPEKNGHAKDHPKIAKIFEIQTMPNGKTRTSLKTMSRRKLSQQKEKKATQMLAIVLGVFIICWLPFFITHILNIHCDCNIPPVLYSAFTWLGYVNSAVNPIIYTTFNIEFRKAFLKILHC
Sequence of human recombinant dopamine D3 receptor (P35462 whole entry): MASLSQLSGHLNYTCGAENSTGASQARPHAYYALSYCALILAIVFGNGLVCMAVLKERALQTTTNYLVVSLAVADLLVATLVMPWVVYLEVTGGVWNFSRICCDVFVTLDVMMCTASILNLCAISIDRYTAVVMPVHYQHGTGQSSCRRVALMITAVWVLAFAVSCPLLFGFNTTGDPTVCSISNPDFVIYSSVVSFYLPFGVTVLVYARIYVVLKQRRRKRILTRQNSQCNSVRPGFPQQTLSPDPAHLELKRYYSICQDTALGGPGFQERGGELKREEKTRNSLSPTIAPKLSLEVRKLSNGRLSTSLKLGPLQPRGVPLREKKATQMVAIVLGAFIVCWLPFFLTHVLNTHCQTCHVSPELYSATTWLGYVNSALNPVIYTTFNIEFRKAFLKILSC

Consider `O=C(N[C@H]1CC[C@H](CCN2CCc3sc(OCC(F)F)nc3C2)CC1)c1cccc2ncccc12` [Compound I-085], for which the “number of choices of the large reward during total 50 trials of 5 days” value in assay [1] is listed as “significantly increased”.
`O=C1Cc2cccc(C(=O)N[C@H]3CC[C@H](CCN4CCc5nc(OCC(F)F)sc5CC4)CC3)c2N1` [III-280]: the Ki in assay [2] was determined as 500 nM; in assay [3], 0.11 nM.
The matching figures for `Cn1cc2c(C(=O)N[C@H]3CC[C@H](CCN4CCc5sc(N6CC(F)(F)C6)nc5C4)CC3)cccc2n1` [III-439]: 500 nM and 0.29 nM.
Turning to `Cn1cc2c(C(=O)N[C@H]3CC[C@H](CCN4CCc5sc(OCC(C)(F)F)nc5C4)CC3)cccc2n1` [III-441], the Ki came out at 170 nM in assay [2] and 0.24 nM in assay [3].
The matching figures for `Cc1ncc(CC(=O)N[C@H]2CC[C@H](CCN3CCc4sc(OCC(C)(F)F)nc4C3)CC2)o1` [III-451]: 650 nM and 0.48 nM.
The matching figures for `Cn1cc2c(C(=O)N[C@H]3CC[C@H](CCN4CCc5sc(CCC(F)(F)F)nc5C4)CC3)cccc2n1` [III-452]: 1000 nM and 0.29 nM.
The matching figures for `Cn1cc2c(C(=O)N[C@H]3CC[C@H](CCN4CCc5sc(OCC(F)(F)F)nc5C4)CC3)cccc2n1` [III-464]: 580 nM and 0.37 nM.
For `Cn1cc(CC(=O)N[C@H]2CC[C@H](CCN3CCc4sc(OC5CCC(F)(F)C5)nc4C3)CC2)cn1` (some centres unmarked) [III-484], the Ki is 850 nM in assay [2] and 0.44 nM in assay [3].
The matching figures for `Cc1nc(CC(=O)N[C@H]2CC[C@H](CCN3CCc4sc(N5CC(F)(F)C5)nc4C3)CC2)no1` [III-512]: 1100 nM and 0.9 nM.
The matching figures for `CCCOc1nc2c(s1)CCN(CC[C@H]1CC[C@H](NC(=O)c3cccc4nn(C)cc34)CC1)C2` [III-544]: over 1700 nM and 0.55 nM.
Take `Cn1cc(CC(=O)N[C@H]2CC[C@H](CCN3CCc4sc(OCC(C)(F)F)nc4C3)CC2)c(F)n1` [III-547]: the Ki amounted to 800 nM in assay [2] and 0.64 nM in assay [3].
On to `Cn1ncc(CC(=O)N[C@H]2CC[C@H](CCN3CCc4sc(OCC(C)(F)F)nc4C3)CC2)c1F` [III-548], for which the Ki is 830 nM in assay [2] and 0.46 nM in assay [3].
The matching figures for `Cc1ncccc1C(=O)N[C@H]1CC[C@H](CCN2CCc3sc(OCC(C)(F)F)nc3C2)CC1` [III-555]: 310 nM and 0.4 nM.
The matching figures for `Cn1cc(OCC(=O)N[C@H]2CC[C@H](CCN3CCc4sc(OCC(C)(F)F)nc4C3)CC2)cn1` [III-573]: 350 nM and 0.32 nM.
The matching figures for `CC(F)(F)COc1nc2c(s1)CCN(CC[C@H]1CC[C@H](NS(=O)(=O)c3cccc(F)c3)CC1)C2` [III-576]: 79 nM and 0.44 nM.
Consider `O=C(CCC(F)(F)F)N[C@H]1CC[C@H](CCN2CCc3sc(N4CC(F)(F)C4)nc3C2)CC1` [III-580], for which the Ki in assay [2] stood at 540 nM; in assay [3], 0.25 nM.
As for `Cc1ncccc1C(=O)N[C@H]1CC[C@H](CCN2CCc3sc(OCC(F)(F)F)nc3C2)CC1` [III-603], the Ki in assay [2] was found to be 610 nM; in assay [3], 0.44 nM.
The matching figures for `CN1Cc2c(C(=O)N[C@H]3CC[C@H](CCN4CCc5sc(OCC(F)(F)F)nc5C4)CC3)cccc2C1=O` [III-610]: 330 nM and 0.077 nM.
The matching figures for `Cn1cc(CC(=O)N[C@H]2CC[C@H](CCN3CCc4sc(COC(F)(F)F)nc4C3)CC2)cn1` [III-622]: over 1800 nM and 1.2 nM.
The matching figures for `Cn1cc2c(C(=O)N[C@H]3CC[C@H](CCN4CCc5sc(COC(F)(F)F)nc5C4)CC3)cccc2n1` [III-623]: over 1800 nM and 0.83 nM.
As for `Cn1ccc2c(C(=O)N[C@H]3CC[C@H](CCN4CCc5sc(OCC(C)(F)F)nc5C4)CC3)cccc2c1=O` [III-630], the results for the Ki in assay [2] and in assay [3] were over 1900 nM and 0.16 nM, respectively.
Turning to `Cn1cc2c(C(=O)N[C@H]3CC[C@H](CCN4CCc5sc(CCC(C)(F)F)nc5C4)CC3)cccc2n1` [III-642], the results for the Ki in assay [2] and in assay [3] were 920 nM and 0.37 nM, respectively.
The matching figures for `O=C(N[C@H]1CO[C@H](CCN2CCc3sc(OCC(F)(F)F)nc3C2)OC1)OCc1ccccc1` [III-659]: 1500 nM and 9.6 nM.
The matching figures for `Cn1cc2c(C(=O)NN3CCC(CCN4CCc5sc(OCC(F)(F)F)nc5C4)CC3)cccc2n1` [III-661]: 1300 nM and 0.5 nM.
The matching figures for `Cn1cc2c(C(=O)N[C@H]3CC[C@H](CCN4CCc5sc(OCC(C)(F)F)nc5C4)CC3)ccc(F)c2n1` [III-666]: 210 nM and 0.2 nM.
For `Cc1nnc(CC(=O)N[C@H]2CC[C@H](CCN3CCc4sc(CCC(F)(F)F)nc4C3)CC2)o1` [III-674], the Ki was 1100 nM in assay [2] and 1.1 nM in assay [3].
The matching figures for `Cn1cc2c(C(=O)N[C@H]3CC[C@H](CCN4CCc5sc(CCC(F)F)nc5C4)CC3)cccc2n1` [III-685]: 280 nM and 0.1 nM.
The matching figures for `Cc1ncc(CC(=O)N[C@H]2CC[C@H](CCN3CCc4sc(CCC(F)(F)F)nc4C3)CC2)o1` [III-696]: 800 nM and 0.2 nM.
The matching figures for `CN1Cc2c(C(=O)N[C@H]3CC[C@H](CCN4CCc5sc(CCC(F)(F)F)nc5C4)CC3)cccc2C1=O` [III-697]: 220 nM and 0.23 nM.
With `Cc1cnc(CC(=O)N[C@H]2CC[C@H](CCN3CCc4sc(CCC(F)(F)F)nc4C3)CC2)o1` [III-698], the Ki in assay [2] was 770 nM; in assay [3] it was 0.52 nM.
The matching figures for `CCN1Cc2c(C(=O)N[C@H]3CC[C@H](CCN4CCc5sc(CCC(F)(F)F)nc5C4)CC3)cccc2C1=O` [III-701]: 190 nM and 0.15 nM.
`CCn1c(C(=O)N[C@H]2CC[C@H](CCN3CCc4sc(CCC(F)(F)F)nc4C3)CC2)cccc1=O` [III-704]: the Ki in assay [2] was 380 nM; in assay [3] it was 0.51 nM.
The matching figures for `Cc1nc(/C=C/C(=O)N[C@H]2CC[C@H](CCN3CCc4sc(N5CC(F)(F)C5)nc4C3)CC2)cs1` [III-706]: 290 nM and 0.051 nM.
